Laboratory results reported in the SangsterLogP compilation.

Test: method code SF, from Hansch, C. & Leo, A. (1987). Log P database [Dataset]. Pomona College Medicinal Chemistry Project.

Structure (SMILES) | logP | other results
CNP(=O)(OC)Oc1ccc(C(C)(C)C)cc1Cl (stereo not given) | 3.42 | 
CNC(=S)NC | -0.24 | 
CC(=O)Oc1ccc(N=C2C=CC(=O)C=C2)cc1 | 1.43 | 
N#C/N=N/c1ccccc1 | 2.3 | 
CN(C)CCc1cccnc1 |  | logD (pH 11.0): 0.82
CC1(C)OC2CC3C4CC(F)C5=CC(=O)C(Cl)=CC5(C)C4(F)C(O)CC3(C)C2(C(=O)CO)O1 (stereo not given) | 2.99 | 
Cc1ccc2[nH]c(CCCCCCc3nc4cc(C)ccc4[nH]3)nc2c1 | 1.76 | 
CCOC(=O)C(=Cc1cccc(OC)c1)C(C)=O | 2.34 | 
NC(=O)NN=CCCc1ccccc1 | 2.32 | 
CC(C)(C)C | 3.11 | 
CCn1c(=O)c(N(C)C)c(C)n(-c2ccccc2)c1=O |  | logD (pH 7.4): 2.29
CCC(C)c1ccccc1OC(=O)N(C)C (stereo not given) | 3.31 | 
CC(=O)Nc1cccc(C#N)c1 | 1.2 | 
C(=N\N1CCCCC1)/c1ccccc1 | 3.04 | 
Cc1cc(CSc2ccccc2Cl)c(O)c(C(=O)O)c1 | 4.69 | 
CCOP(=S)(Oc1ccc(C#N)cc1)c1ccccc1 (stereo not given) | 4.29 | 
Oc1cc(-c2ccccc2)on1 |  | logD (pH 1.0): 2.55
Cc1c(N(C)C)c(=O)n(C)c(=O)n1-c1ccccc1 |  | logD (pH 7.4): 1.19
CCOC(=O)c1ccc(NC(=O)C(F)(F)F)cc1 | 2.25 | 
CCN(CC)/N=N/c1nc[nH]c1C(N)=O |  | logD (pH 4.6): 0.78
COc1cccc(OC)c1OC | 1.53 | 
CN1CC(C)(C)C(=O)c2ccccc21 |  | logD (pH 7.0): 2.72
N=C(N)NS(=O)(=O)c1ccc(N)cc1 | -1.22 | 
CC(=O)Nc1ccc(OC(C)=O)cc1 | 0.8 | 
Nc1cccc(OC(=O)CNC(=O)c2ccccc2)c1 | 1.3 | 
CNC(=O)C=C(C)OP(=O)(OC)OC | -0.2 | 

Structure (SMILES) | logP | other results
c1ccn2nnnc2c1 | -0.09 | 
CC(=S)Oc1ccccc1 | 1.91 | 
CC(C)Cl | 1.9 | 
O=c1[nH]c2ccccc2[nH]c1=O | 0.2 | 
Cc1c(N(C)C)c(=O)n(C)c(=O)n1C |  | logD (pH 7.4): 0.99
CCC1OC(=O)C(C)C(OC2CC(C)(O)C(C)O2)C(C)C(OC2OC(C)C(O)C(N(C)C)C2O)C(C)(O)CC(C)C(=O)C(C)C(O)C1(C)O (stereo not given) | 1.44 | 
CN(C(=O)CC[N+](=O)[O-])c1ccc(S(=O)(=O)N(C)C)cc1 | 0.3 | 
O=C(NCc1ccccc1)c1ccco1 | 1.81 | 
Nc1c2ccccc2nc2ccccc12 | 2.74 | 
CCOc1ccccc1OC | 1.73 | 
COc1cc(S(C)=O)ccc1-c1cn2ccnc(OC)c2n1 (stereo not given) | 1.49 | 
c1ccc(N2CCCCC2)cc1 |  | logD (pH 13.0): 2.98
CSc1nccc(O)n1 | 0.22 | 
CNc1ccccn1 | 1.07 | 
O=C1C(NCCO)=C(N2CC2)C(=O)C(NCCO)=C1N1CC1 | -1.48 | 
C#CC(C)(C)O | 0.28 | 
FC(F)(F)Oc1ccccc1 | 3.17 | 
O=C(O)COc1ccc(Cl)c(Br)c1 | 2.75 | 
CCC(C)(C)C | 3.82 | 
CCOC(=O)C(=Cc1cccc(Cl)c1)C(C)=O | 2.97 | 
NC(=O)c1ccc(N)cc1 | -0.41 | 
CC1(C)N=C(N)N=C(N)N1c1cccc(COc2cccc(NC(N)=O)c2)c1 |  | logD (pH 13.0): 0.9
CSCCC(=O)N(C)c1ccc(S(=O)(=O)N(C)C)cc1 | 0.99 | 
CC(=O)Oc1ccccc1C | 1.93 | 
NC(=O)c1ncccc1O |  | logD (pH 7.4): 0.65
CCCOCCC(=O)N(C)c1ccc(S(=O)(=O)N(C)C)cc1 | 1.26 | 

Structure (SMILES) | logP | other results
CC(O)COc1cccc2oc(C(=O)O)cc(=O)c12 (stereo not given) |  | logD (pH 0.5): 1.32
C=C1C(=O)O[C@@H]2/C=C(\C)CC/C=C(\C)CC[C@@H]12 | 2.09 | 
c1ccc2nc3ccccc3nc2c1 | 2.84 | 
CCC(C)NC(=O)C(=Cc1ccccc1)Cc1ccccc1 (stereo not given) | 3.99 | 
Oc1cccnc1 | 0.48 | 
CC(=O)OCC1=C(C(=O)O)N2C(=O)C(NC(=O)COc3ccccc3)C2SC1 (stereo not given) |  | logD (pH 3.0): 0.26
O=S1(=O)NC(CCl)=Nc2cc(Cl)ccc21 | 1.68 | 
COCCC(=O)N(C)c1ccc(S(=O)(=O)N(C)C)cc1 | 0.33 | 
O=C1C=CC(=NBr)C=C1 | 1.12 | 
C[C@@H](O)c1ccccc1 | 1.42 | 
NC(=O)N/N=C/c1ccccc1 | 1.27 | 
CCCCN(CCCC)C(=O)COc1ccccc1 | 3.23 | 
O=C(CNC(=O)c1ccccc1)Oc1cccc(C(F)(F)F)c1 | 3.3 | 
OC(c1nc2cc(Cl)ccc2[nH]1)C(O)c1nc2cc(Cl)ccc2[nH]1 (stereo not given) | 1.21 | 
CCCCSc1ccccc1OC(=O)NC | 2.98 | 
O=S1(=O)NC(C(Cl)Cl)=Nc2cc(Cl)ccc21 | 1.81 | 
CCCC(=O)Nc1ccc(Cl)c(Cl)c1 | 3.77 | 
C/C=C/c1ccccc1 | 3.35 | 
O=C1c2ccccc2C(=O)N1CCCCBr | 2.96 | 
c1cncc([C@@H]2CCCN2)c1 |  | logD (pH 11.0): 0.17
CC(=O)Nc1ccc(C(C)(C)C)cc1 | 3.05 | 
CC(C)(C)[N+]([O-])=NC#N | 1.4 | 
COc1cc(C=O)ccc1OCCOC(=O)c1cccc(Cl)c1 | 3.67 | 
CON(C)C(=O)Nc1cccc(C#N)c1 | 1.33 | 
C=CCc1cccc2c(=O)c(C)c(-c3ccccc3)oc12 | 4.67 | 
CCCCCCCOC(=O)c1ccc(O)cc1 | 4.83 | 

Structure (SMILES) | logP | other results
NC(=O)N=[N+]([O-])c1ccccc1 | 0.58 | 
CC(=O)Nc1ccc(CN(C)/N=N/c2ccc(C(=O)O)cc2)cc1 | 3.35 | 
CCOP(=O)(OCC)SCS(=O)CC (stereo not given) | 1.69 | 
CNC1(c2ccccc2Cl)CCCCC1=O (stereo not given) |  | logD (pH 13.0): 2.18
C=CC=C | 1.99 | 
O=C(c1ccccc1)C(F)(F)F | 2.15 | 
CN(C(=O)COc1ccccc1)c1ccccc1 | 2.25 | 
COc1cc(S(C)=O)ccc1-c1cn2ccncc2n1 (stereo not given) | 1.11 | 
CCOC(=O)c1ccc([N+](=O)[O-])cc1 |  | logD (pH 7.0): 2.33
Nc1ccc2cc3ccccc3nc2c1 | 2.19 | 
CCCCNc1c(C)n(C)c(=O)n(-c2ccccc2)c1=O |  | logD (pH 7.4): 1.69
O=CN(Cc1ccccc1)c1ccccc1 | 2.62 | 
O=NN(CCF)C(=O)NC1CCC(NC(=O)N(CCF)N=O)CC1 (stereo not given) | 1.34 | 
O=C1CCCCO1 | -0.35 | 
Cn1cnc2ccccc2c1=O | 0.69 | 
CCN(CC)c1c(C)n(C)c(=O)n(-c2ccccc2)c1=O |  | logD (pH 7.4): 2.11
CN(C)C(=O)COc1ccccc1 | 0.78 | 
CS(=O)(=O)c1cccc([N+](=O)[O-])c1 |  | logD (pH 7.0): 0.5
CN(C)C(=O)Oc1ccccc1[N+](=O)[O-] | 1.35 | 
CN1C(=O)c2ccccc2C1=O | 1.31 | 
CC(=O)OC1CCCC(NC(=O)N(CCF)N=O)C1 (stereo not given) | 1.33 | 
CCCOCCC | 2.03 | 
CCOC(=O)CC(=O)C=Cc1cccc(C)c1 | 2.8 | 
CC(=O)OCC(F)(F)F | 1.18 | 
Oc1ccccc1C(F)(F)F | 2.73 | 
CCCNP(=O)(OC)Oc1cc(Cl)c(Cl)cc1Cl (stereo not given) | 3.7 | 

Structure (SMILES) | logP | other results
CC(=O)Oc1ccccc1F | 1.76 | 
O=C(O)c1cccc([N+](=O)[O-])c1C(=O)O |  | logD (pH 1.0): 0.75
O=C(c1ccco1)C(O)c1ccco1 (stereo not given) | 0.54 | 
O=[N+]([O-])c1cccc(C(F)(F)F)c1 |  | logD (pH 7.0): 2.62
CC(C)CN(CC(C)C)C(=O)C=Cc1ccc2c(c1)OCO2 | 4.37 | 
CC(=O)Nc1cccs1 | 1.1 | 
CCOC(=O)/C(=C/c1cccc(F)c1)C(C)=O | 2.46 | 
C[C@@H]1CC[C@H](C)N1C(=O)Nc1ccccc1 | 2.33 | 
O=C1C(NCC(O)CO)=C(N2CC2)C(=O)C(NCC(O)CO)=C1N1CC1 (stereo not given) | -1.97 | 
CC(=O)O[C@@H]1[C@@H](OC(C)=O)[C@H](OC(C)=O)CO[C@H]1NC(=O)N(CCCl)N=O | 1.05 | 
O=[N+]([O-])c1ccccc1C(F)(F)F | 2.58 | 
CC(C)C1=Nc2cc(Cl)ccc2S(=O)(=O)N1 | 2 | 
CN(C=O)c1ccc(S(=O)(=O)N(C)C)cc1 | 0.4 | 
CC(=O)c1cccc(OC(=O)N(C)C)c1 | 1.18 | 
Cc1cc(C)cc(OC(=O)CNC(=O)c2ccccc2)c1 | 3.4 | 
O=C(Nc1ccccc1)c1ccc(C(=O)Nc2ccccc2)cc1 | 3.72 | 
NC(=O)c1ccc(Cl)cc1 | 1.53 | 
CCCC(C(=O)OCCN(CC)CC)(c1ccccc1)c1ccccc1 | 4.65 | 
O=Cc1ccc2c(c1)OCO2 | 1.05 | 
Cn1ncc2cc([N+](=O)[O-])cc([N+](=O)[O-])c21 | 1.63 | 
CC(=O)Nc1ccc(C(F)(F)F)cc1 | 2.52 | 
c1ccc2[nH]c(CCCCCCc3nc4ccccc4[nH]3)nc2c1 | 1.66 | 
CC(=O)c1csc2ccccc12 | 2.78 | 
COC(=O)Cc1cccs1 | 1.51 | 
CCC1(C)CCC(=O)NC1=O (stereo not given) | 0.23 | 
CCC(C)NC(=O)C(=Cc1ccccc1)c1ccccc1 (stereo not given) | 4.05 | 

Structure (SMILES) | logP | other results
C(=N\c1ccccc1)/c1ccccc1 | 2.82 | 
O=C(N[C@H](CO)[C@H](O)c1ccc(-c2ccccn2)cc1)C(F)(F)F | 1.31 | 
CC(=O)Nc1ccc(F)cc1 | 1.43 | 
Nc1cc(=O)[nH]cn1 | -0.99 | 
O=C1CC(C(=O)O)Oc2ccccc21 (stereo not given) |  | logD (pH 0.7): 1.26
Nc1cccc2c1C(=O)c1ccccc1C2=O | 2.87 | 
O=S1(=O)NC=Nc2cc(Cl)ccc21 | 1.01 | 
O=C1C=CC(=O)N1 | -0.29 | 
CCC(C)C1=Nc2ccc(Cl)cc2S(=O)(=O)N1 (stereo not given) | 2.47 | 
NNC(=O)NN=Cc1ccccc1 | 0.81 | 
CNC(=O)Oc1ccccc1C1OCCO1 | 0.67 | 
S=c1cc[nH]cc1 | 0.2 | 
OC12CC3CC(CC(C3)C1)C2 | 2.14 | 
CCOC(=O)N=[N+]([O-])c1ccccc1 | 2.53 | 
COc1ccc(OC(=O)N(C)C)cc1 | 1.53 | 
CCN(CC)c1ccc(CO)cc1 | 2.29 | 
CCN(CC)Cc1cccnc1 |  | logD (pH 11.0): 1.01
CNP(=O)(OC)Oc1ccc(OC)cc1 (stereo not given) | 1.06 | 
COC(=O)Cc1ccsc1 | 1.46 | 
COc1ccc(C=C(C(C)=O)C(C)=O)c(OC)c1 | 1.88 | 
CN(Cc1ccc([N+](=O)[O-])cc1)/N=N/c1ccc(C(=O)O)cc1 | 4.03 | 
CCOP(=S)(OCC)Oc1ncn(-c2ccccc2)n1 | 3.55 | 
c1ccc(-n2cccc2)cc1 | 3.08 | 
O=[N+]([O-])c1ccc2ncccc2c1 | 1.84 | 
Cn1nnnc1SCC1=C(C(=O)O)N2C(=O)C(NC(=O)Cc3cccs3)C2SC1 (stereo not given) |  | logD (pH 3.0): 0
